Measured values taken from patent US20120184537A1, “[1,4]-BENZODIAZEPINES AS VASOPRESSIN V2 RECEPTOR ANTAGONISTS” (SHIRE-MOVETIS N.V., priority 2009, published 2012).

Tests used:
[1] = target: T1, human V1a receptors (Homo sapiens, UniProt P37288); assay: Human V1a antagonist effect (AVP-induced calcium mobilization in transfected CHO cells); type: cell-based; set-up: expressed in transfected cells; host or cells: CHO cells; conditions: inhibition of response to 10 nM AVP, Ca2+ fluorescence, read-out: V1a antagonism IC50
Description: (§1) Intracellular calcium mobilization was measured in CHO cells transfected to express either human V1a receptors (supra), in analogy with the Measurement of intracellular Ca^2+ concentration as described in Tahara A., et al., (1998) Brit. J. Pharmacol., 125; 1463-1470; which is incorporated herein by reference.
(§2) The cells are suspended in DMEM buffer (Invitrogen) complemented with 0.1% fetal calf serum, then distributed in microplates at a density of 4.5×10^4 cells/well.
(§3) The fluorescent probe (Calcium4, Molecular Device) mixed with probenicid in HBSS buffer (Invitrogen) complemented with 20 mM Hepes (Invitrogen) (pH 7.4) is then added into each well and equilibrated with the cells for 60 min at 37° C. then 15 min at 22° C. Thereafter, the assay plates are positioned in a microplate reader (CellLux, PerkinElmer) which is used for the addition of the test compound or HBSS buffer then 5 min later 10 nM AVP or HBSS buffer (control), and for the measurements of changes in fluorescence intensity which varies proportionally to the free cytosolic Ca2+ ion concentration.
The standard reference antagonist is [d(CH2)^51,Tyr(Me)^2,Arg^8]-AVP, which is tested in each experiment at several concentrations to generate a concentration-response curve from which its IC50 value is calculated.

[2] = target: T1, human V1a receptors; assay: Human vasopressin V1a receptor binding assay ([3H]AVP displacement); set-up: expressed in transfected cells; host or cells: CHO cells (membrane homogenates); conditions: displacement of 0.3 nM [3H]AVP, CHO cell membranes, 22° C.
Description: (§4) The in vitro inhibition of AVP receptor binding was assessed by using recombinant human V1a or V2 receptor preparations derived from the membranes of transfected CHO cells. Compounds were assessed for their ability to displace [^3H]-arginine vasopressin from plasma membrane preparations of said CHO transfected cells in analogy with the Binding Assay procedures described in Cotte N., et al., (1998) J. Biol. Chem., 273; 29462-29468 and Tahara A., et al., (1998) Brit. J. Pharmacol., 125; 1463-1470; which are incorporated herein by reference.
(§5) Cell membrane homogenates (40 μg protein) are incubated for min at 22° C. with 0.3 nM [^3H]AVP in the absence or presence of the test compound in a buffer containing 50 mM Tris-HCl (pH 7.4), 5 mM MgCl2 and 0.1% BSA. Nonspecific binding is determined in the presence of 1 μM AVP. Following incubation, the samples are filtered rapidly under vacuum through glass fiber filters (GF/B, Packard) presoaked with 0.3% PEI and rinsed three times with ice-cold 50 mM Tris-HCl using a 96-sample cell harvester (Unifilter, Packard). The filters are dried then counted for radioactivity in a scintillation counter (Topcount, Packard) using a scintillation cocktail (Microscint 0, Packard).
(§6) The standard reference compound is AVP (V2 receptor binding assay) or [d(CH2)51,Tyr(Me)2]-AVP (V1a receptor binding assay), which is tested in each experiment at several concentrations to obtain a competition curve from which its IC50 is calculated.

[3] = target: T1, human V1a receptors; assay: Human V1a agonist effect (intracellular calcium mobilization in transfected CHO cells); type: cell-based; set-up: expressed in transfected cells; host or cells: CHO cells; conditions: compound at 1 μM, control response to 1 μM AVP, Ca2+ fluorescence
Description: as §1, §2
as §3, with “compound, reference agonist” for “compound”, “(basal control),” for “then 5 min later 10 nM AVP or HBSS buffer (control),”, “Ca^2+” for “Ca2+”, “concentration. For stimulated control measurements, AVP at 1 μM is added in separate assay wells.” for “concentration.”
The results are expressed as a percent of the control response to 1 μM AVP.

[4] = target: T2, human V2 receptor (Homo sapiens, UniProt P30518); assay: Human vasopressin V2 receptor binding assay ([3H]AVP displacement); set-up: expressed in transfected cells; host or cells: CHO cells (membrane homogenates); conditions: displacement of 0.3 nM [3H]AVP, CHO cell membranes, 120 min at 22° C.
Description: as §4
as §5, with “membrane homogenates (16 μg protein)” for “membrane homogenates (40 μg protein)”, “incubated for 120 min at” for “incubated for min at”
as §6

[5] = target: T2, human V2 receptor; assay: Human V2 antagonist effect (AVP-induced cAMP accumulation in transfected CHO cells); type: cell-based; set-up: expressed in transfected cells; host or cells: CHO cells; conditions: inhibition of control response to 0.03 nM AVP, read-out: V2 antagonism IC50
Description: (§7) The accumulation of cAMP was measured in transfected CHO cells (supra) expressing the human V2 receptor in analogy with the cAMP Assay procedures described in Cotte N., et al., (1998) J. Biol. Chem., 273; 29462-29468; which is incorporated herein by reference.
The cells are suspended in HBSS buffer (Invitrogen) complemented with 20 mM HEPES (pH 7.4), 0.01% and 500 μM IBMX, then distributed in microplates at a density of 3×10^3 cells/well and preincubated for 5 min at 22° C. in the absence (control) or presence of the test compound or the reference antagonist. Thereafter, the reference agonist AVP is added at a final concentration of 0.03 nM.
Following 30 min incubation at 22° C., the cells are lysed and the fluorescence acceptor (D2-labeled cAMP) and fluorescence donor (anti-cAMP antibody labeled with europium cryptate) are added. After 60 min at 22° C., the fluorescence transfer is measured at λex=337 nm and λem=620 and 665 nm using a microplate reader (Rubystar, BMG). The cAMP concentration is determined by dividing the signal measured at 665 nm by that measured at 620 nm (ratio). The results are expressed as a percent inhibition of the control response to 0.03 nM AVP.
The standard reference antagonist is [adamantaneacetyl^1,O-Et-D-Tyr^2,Val^4,aminobutyryl^6]-AVP, which is tested in each experiment at several concentrations to generate a concentration-response curve from which its IC50 value is calculated.

[6] = target: T2, human V2 receptor; assay: Human V2 agonist effect (cAMP accumulation in transfected CHO cells); type: cell-based; set-up: expressed in transfected cells; host or cells: CHO cells; conditions: compound at 1 μM, control response to 1 nM AVP
Description: as §7
The cells are suspended in HBSS buffer (Invitrogen) complemented with 20 mM HEPES 20 (pH 7.4), 0.01% BSA and 500 μM IBMX, then distributed in microplates at a density of 3×10^3 cells/well and incubated for 30 min at 22° C. in the absence (control) or presence of the test compound or the reference agonist. For stimulated control measurement, separate assay wells contain AVP at a final concentration of 1 nM. Following incubation, the cells are lysed and the fluorescence acceptor (D2-labeled cAMP) and fluorescence donor (anti-cAMP antibody labeled with europium cryptate) are added. After 60 min at 22° C., the fluorescence transfer is measured at λex=337 nm and λem=620 and 665 nm using a microplate reader (Rubystar, BMG). The cAMP concentration is determined by dividing the signal measured at 665 nm by that measured at 620 nm (ratio).
The results are expressed as a percent of the control response to 1 nM AVP.

T1 sequence (P37288 whole entry): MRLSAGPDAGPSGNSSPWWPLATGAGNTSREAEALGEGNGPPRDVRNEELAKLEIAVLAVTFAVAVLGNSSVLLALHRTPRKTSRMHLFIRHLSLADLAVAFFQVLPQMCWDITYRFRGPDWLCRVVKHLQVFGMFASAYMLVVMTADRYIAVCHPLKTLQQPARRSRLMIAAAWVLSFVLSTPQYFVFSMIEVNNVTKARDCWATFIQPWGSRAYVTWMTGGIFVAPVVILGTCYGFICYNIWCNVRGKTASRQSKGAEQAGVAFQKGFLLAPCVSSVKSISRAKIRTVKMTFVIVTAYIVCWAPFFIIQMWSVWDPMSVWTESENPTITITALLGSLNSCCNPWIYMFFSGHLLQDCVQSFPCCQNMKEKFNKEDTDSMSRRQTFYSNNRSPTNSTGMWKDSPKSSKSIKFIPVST

Compound	IC50 [1]	IC50 [2]	V1a agonist effect, % of control agonist response (AVP) [3]	IC50 [4]	IC50 [5]	V2 agonist effect, % of control agonist response (AVP) [6]
O=C1CN2Cc3ccccc3N(C(=O)c3ccc(NC(=O)c4ccccc4-c4ccccc4)cc3Cl)C[C@H]2CO1 [Compound 16, (S)—N-(3-chloro-4-(3-oxo-3,4,6,11,12,12a-hexahydro-1H-benzo[e][1,4]oxazino[4,3-a][1,4]diazepine-11-carbonyl)phenyl)biphenyl-2-carboxamide]	> 100000 nM	240 nM	−1%	1.9 nM	13 nM	0%
N-[3-chloro-4-({13-oxa-1,9-diazatricyclo[9.4.0.0^{3,8}]pentadeca-1,3,5,7-tetraen-9-yl}carbonyl)phenyl]-2-phenylbenzamide [Compound 21]	> 100000 nM	780 nM		19 nM	410 nM	−1.5%

More lines, now with the values ahead:

IC50 [1]	IC50 [2]	V1a agonist effect, % of control agonist response (AVP) [3]	IC50 [4]	IC50 [5]	V2 agonist effect, % of control agonist response (AVP) [6]	Compound
> 100000 nM	3800 nM	−1%	5.8 nM	57 nM	−1%	O=C(Nc1ccc(C(=O)N2C[C@@H](CO)NCc3ccccc32)c(Cl)c1)c1ccccc1-c1ccccc1 [Compound 14, (S)—N-(3-chloro-4-(3-(hydroxymethyl)-2,3,4,5-tetrahydro-1H-benzo[e][1,4]diazepine-1-carbonyl)phenyl)biphenyl-2-carboxamide]
		−1%	120 nM	2800 nM	−1%	O=C(O)CN1Cc2ccccc2N(C(=O)c2ccc(NC(=O)c3ccccc3-c3ccccc3)cc2Cl)C[C@H]1CO [Compound 17, (S)-2-(1-(4-biphenyl-2-ylcarboxamido-2-chlorobenzoyl)-3-(hydroxymethyl)-2,3-dihydro-1H-benzo[e][1,4]diazepin-4(5H)-yl)acetic acid]
20000 nM	210 nM	−1%	2.5 nM	11 nM	0%	O=C(Nc1ccc(C(=O)N2C[C@H]3COC(O)CN3Cc3ccccc32)c(Cl)c1)c1ccccc1-c1ccccc1 (stereo partly drawn) [Compound 19, (S)—N-(3-chloro-4-(3-hydroxy-3,4,6,11,12,12a-hexahydro-1H-benzo[e][1,4]oxazino[4,3-a][1,4]diazepine-11-carbonyl)phenyl)biphenyl-2-carboxamide]
